Measured values taken from PubChem BioAssay (NCI).
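Values below derive from 48-hour exposures of cells grown in 96-well plates, with endpoints linearly interpolated between the two concentrations bracketing the appropriate inhibition level. TGI: concentration producing complete growth inhibition.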

Legend:
Test in all cases: NCI-60 cell line screen, 48 h
[1] = system: DLD-1 colon
[2] = system: DMS 114 small cell lung
[3] = system: DMS 273 small cell lung
[4] = system: HOP-18 NSCLC
[5] = system: KM20L2 colon
[6] = system: M19-MEL melanoma
[7] = system: SNB-78 CNS
[8] = system: XF 498 CNS
[9] = system: RXF-631 renal

SMILES	TGI [1]	TGI [2]	TGI [3]	TGI [4]	TGI [5]	TGI [6]	TGI [7]	TGI [8]	TGI [9]
CC(Oc1ccc(Oc2cnc3ccc(Cl)cc3n2)cc1)C(=O)O (configuration not stated)	> 100 µM	> 100 µM	> 100 µM	> 100 µM	> 100 µM	> 100 µM	> 100 µM	> 100 µM	
CCOc1ccc(N=C(NC(=O)c2ccccc2)SC)cc1	> 100 µM	> 100 µM	> 100 µM	> 100 µM	> 100 µM	> 100 µM	> 100 µM		
O=c1c2c(-c3ccccc3)c3ccccc3nc2cnn1-c1ccccc1		> 100 µM	> 100 µM	> 100 µM	> 100 µM	> 100 µM	> 100 µM		
CC1(C)OC(=S)N(c2ccccc2)C12C=Cc1cc3ccccc3nc1S2 (configuration not stated)	97 µM	> 100 µM	> 100 µM		> 100 µM	> 100 µM		> 100 µM	
COc1cccc(-c2cc(=O)c3cc4c(cc3[nH]2)OCO4)c1	> 100 µM	> 100 µM		> 100 µM		> 100 µM	> 100 µM	2.59 µM	> 100 µM
COC(=O)C(C(=O)C(=O)Nc1ccc(C)cc1C)c1csc(-n2nc(-c3ccccc3)cc2-c2ccccc2)n1 (configuration not stated)	> 100 µM	> 100 µM	> 100 µM	> 100 µM	> 100 µM	> 100 µM	> 100 µM	> 100 µM	> 100 µM
CCC1=CCN(c2cc(C)ccn2)OC1c1ccccc1 (configuration not stated)	> 100 µM	> 100 µM	> 100 µM	> 100 µM	> 100 µM	> 100 µM	> 100 µM	71.2 µM	73.1 µM
OC1=CN=COc2ccccc21	> 100 µM	> 100 µM	> 100 µM		> 100 µM	> 100 µM	> 100 µM		> 100 µM
CC(=O)c1ccc(NC(=O)C(=O)C(C(=O)/C=C/c2ccccc2)C2OC(=O)c3ccccc32)cc1 (configuration not stated)	> 100 µM		> 100 µM	> 100 µM	> 100 µM	> 100 µM	> 100 µM	> 100 µM	> 100 µM
O=c1cc(-c2ccccc2)[nH]c2cc(F)cc(F)c12	> 100 µM	93.2 µM	> 100 µM	> 100 µM		> 100 µM			
CCCCCCC(O)CC[C@H]1CCC[C@@H](C)N1 (some centres not stated)	> 100 µM	> 31.6 µM	> 100 µM	> 100 µM	< 10 µM	> 31.6 µM	> 100 µM		
COC/N=C(\NC#N)NCOC	> 100 µM	> 72.5 µM	> 81.5 µM	> 100 µM	> 100 µM	> 100 µM		> 100 µM	> 100 µM
